From ChEMBL document CHEMBL1201862, “PubChem BioAssay data set” (2004)
Activity calls are given as the source filed them.

Legend:
[1] = M. tuberculosis H37Rv growth inhibitors, H37Rv strain (AID 1626); type: functional
[2] = NIH3T3 cell viability loss – ATP luminescence, mouse fibroblasts, counter-screen, dose response (AID 2010); type: functional, cell-based;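 note: cells exposed to compound for about 90 hours before reading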
[3] = Trypanosoma cruzi growth suppression in host cells – NIH3T3 host cells, beta-gal luminescence, confirmation (AID 2044); type: functional, cell-based;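 note: intracellular parasites grown in NIH/3T3 mouse fibroblasts as host cells; luminescent beta-galactosidase reporter signal from transgenic T. cruzi replicating inside host cells; inhibitors lower the luminescence signal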
[4] = molecular target: DNA dC->dU-editing enzyme APOBEC-3G (Homo sapiens, UniProt Q9HC16); type: functional;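 note: Dose-response counterscreen measuring inhibition of APOBEC3G DNA deaminase activity, run while confirming APOBEC3A inhibitors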
[5] = molecular target: Polyadenylate-binding protein 1 (Homo sapiens, UniProt P11940); test: blockers of PABP interaction with poly(A) – biochemical, fluorescence polarization, […] (AID 2014)
[6] = molecular target: Eukaryotic translation initiation factor 4H (Homo sapiens, UniProt Q15056); test: eIF4H binding inhibition – biochemical, uHTS, fluorescence polarization, translation initiation inhibitor project, primary screen (AID 2012)
[7] = molecular target: DNA dC->dU-editing enzyme APOBEC-3A (Homo sapiens, UniProt P31941); test: Dose Response confirmation of small molecule APOBEC3A DNA Deaminase Inhibitors via a fluorescence-based single-stranded DNA deaminase assay. [Related pubchem assays (depositor defined):AID493011, AID493024]; type: functional
[8] = viability of uninfected HEp-2 cells – cell-based, HTS, cytotoxicity control for RSV inhibitor project, dose response (AID 2410); type: functional; settings: human respiratory syncytial virus
Cytochrome P450 3A4 = Cytochrome P450 3A4 (Homo sapiens, UniProt P08684);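 note: CYP3A4 tested as one member of a cytochrome P450 panel screen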
Cytochrome P450 2D6 = Cytochrome P450 2D6 (Homo sapiens, UniProt P10635);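 note: CYP2D6 member of a cytochrome P450 panel assay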
Cytochrome P450 2C19 = Cytochrome P450 2C19 (Homo sapiens, UniProt P33261); test: Cytochrome panel assay with activity outcomes. Panel member name: p450-cyp2c19 Compounds with AC50 equal or less than 10 uM are considered active; type: functional; settings: read-out: AC50
Hexokinase HKDC1 = molecular target: T1, Hexokinase HKDC1 (Homo sapiens, UniProt Q2TB90); test: inhibition of HKDC1 glucose phosphorylation – biochemical, W721R variant, dose response (AID 504729); type: functional
T1 sequence (Q2TB90 whole entry): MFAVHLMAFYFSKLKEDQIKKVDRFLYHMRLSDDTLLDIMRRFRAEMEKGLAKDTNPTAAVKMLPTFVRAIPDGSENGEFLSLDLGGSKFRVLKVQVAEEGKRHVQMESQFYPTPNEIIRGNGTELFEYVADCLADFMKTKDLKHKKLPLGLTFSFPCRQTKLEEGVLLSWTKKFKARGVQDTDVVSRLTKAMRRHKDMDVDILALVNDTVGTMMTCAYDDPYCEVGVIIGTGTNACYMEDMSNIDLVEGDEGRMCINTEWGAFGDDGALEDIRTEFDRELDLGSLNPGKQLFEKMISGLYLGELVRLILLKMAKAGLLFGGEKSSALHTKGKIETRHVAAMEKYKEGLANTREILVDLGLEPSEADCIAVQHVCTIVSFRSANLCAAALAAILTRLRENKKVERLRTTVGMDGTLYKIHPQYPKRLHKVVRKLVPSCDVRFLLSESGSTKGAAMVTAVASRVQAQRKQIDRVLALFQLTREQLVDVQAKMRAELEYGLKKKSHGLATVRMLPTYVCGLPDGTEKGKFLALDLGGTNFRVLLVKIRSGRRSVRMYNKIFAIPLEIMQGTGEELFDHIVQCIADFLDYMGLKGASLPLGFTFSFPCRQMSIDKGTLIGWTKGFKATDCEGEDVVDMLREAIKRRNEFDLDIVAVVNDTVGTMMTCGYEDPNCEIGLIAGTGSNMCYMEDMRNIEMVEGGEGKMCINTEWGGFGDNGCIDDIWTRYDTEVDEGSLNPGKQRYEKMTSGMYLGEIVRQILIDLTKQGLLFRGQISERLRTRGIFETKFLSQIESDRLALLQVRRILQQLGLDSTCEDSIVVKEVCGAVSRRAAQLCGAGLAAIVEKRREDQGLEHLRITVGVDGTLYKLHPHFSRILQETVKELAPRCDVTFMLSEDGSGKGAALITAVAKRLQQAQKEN

Vero [9] = test: cells; type: functional, cell-based; settings: Chlorocebus sabaeus
[10] = molecular target: Induced myeloid leukemia cell differentiation protein Mcl-1 (Homo sapiens, UniProt Q07820); type: functional
HeLa = test: Cytotoxicity counterscreen assay for transcriptional activators of heat shock protein 70 (Hsp70). [Related pubchem assays: 1203, 1252 ]; type: functional; settings: Homo sapiens;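 note: cells exposed to compound for 16 hours before readout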
Vero [11] = test: cells; type: functional; settings: Chlorocebus sabaeus
Estrogen receptor beta = Estrogen receptor beta (Homo sapiens, UniProt Q92731);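 note: recombinant ER-beta bound to coactivator SRC1 peptide in presence of estradiol agonist; inhibitors block coactivator peptide binding and lower the FRET signal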
Genome polyprotein = Genome polyprotein (dengue virus type 2, UniProt P29990); test: flavivirus cap methylation enzyme inhibition – biochemical, confirmation dose response, primary screen (AID 588689); type: functional
[12] = molecular target: FAD-linked sulfhydryl oxidase ALR (Homo sapiens, UniProt P55789); test: ALR-catalysed DTT oxidation blockers – biochemical, H2O2 detection, luminescence, cherry-pick, dose response (AID 493248)
[13] = CCR5-tropic HIV-1 fusion blockers – cell-based, CCR5-tropic Env, dose response (AID 2279); type: functional
[14] = molecular target: Luciferin 4-monooxygenase (Photinus pyralis, UniProt P08659); test: inhibition of purified Photinus pyralis luciferase – biochemical, luminescence, dose response (AID 1891)
[15] = Luminescence Cell-Based Dose Confirmation HTS to Identify Inhibitors of Platelet Dense Granule Release. [Related pubchem assays: 1663 (Primary HTS), 1678 (Summary of Project)]; type: functional
[16] = molecular target: T2, Rac GTPase-activating protein 1 (Homo sapiens, UniProt Q9H0H5); test: blockers of MgcRacGAP-driven Rac1 GTP hydrolysis – biochemical, ADP Hunter fluorescence, primary and confirmatory, confirmation (AID 624330); type: functional
T2 sequence (Q9H0H5 whole entry): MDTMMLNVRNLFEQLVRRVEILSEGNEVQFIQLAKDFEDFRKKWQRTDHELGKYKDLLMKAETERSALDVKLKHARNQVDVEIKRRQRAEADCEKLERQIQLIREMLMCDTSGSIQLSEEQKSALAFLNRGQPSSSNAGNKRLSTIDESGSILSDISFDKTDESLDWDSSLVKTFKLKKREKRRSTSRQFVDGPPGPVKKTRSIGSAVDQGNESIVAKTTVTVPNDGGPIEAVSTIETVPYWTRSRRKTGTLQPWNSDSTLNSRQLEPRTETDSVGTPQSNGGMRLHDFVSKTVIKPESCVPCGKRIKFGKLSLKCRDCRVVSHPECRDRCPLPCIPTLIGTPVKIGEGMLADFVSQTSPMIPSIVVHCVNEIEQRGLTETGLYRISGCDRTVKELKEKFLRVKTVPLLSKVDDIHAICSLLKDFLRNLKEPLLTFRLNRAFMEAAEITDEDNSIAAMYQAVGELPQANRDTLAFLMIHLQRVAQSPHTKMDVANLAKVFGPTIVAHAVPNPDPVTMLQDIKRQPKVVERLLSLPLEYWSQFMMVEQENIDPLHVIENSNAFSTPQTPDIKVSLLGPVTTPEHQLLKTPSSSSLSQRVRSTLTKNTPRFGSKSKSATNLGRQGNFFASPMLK

[17] = A Cell Based Secondary Assay To Explore Cytotoxicity of Compounds that Sensitize Mycobacterium Tuberculosis to Beta-Lactam Antibiotics.; type: functional
[18] = HIV-1 Vif–A3G interaction blockers – biochemical, TR-FRET, GST-Vif 1-94, biotin-A3G peptide, dose response retest, primary screen (AID 1117319); type: functional;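 note: TR-FRET signal of purified GST-Vif binding a biotinylated A3G peptide; inhibitors lower the FRET signal by blocking Vif and A3G binding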
Protein Tat = Protein Tat (Human immunodeficiency virus type 1 group M subtype B (isolate HXB2)(HIV-1), UniProt P04608); type: functional;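 note: tat binding to TAR RNA read out by fluorescence polarization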
Protein Tat, sequence (P04608 whole entry): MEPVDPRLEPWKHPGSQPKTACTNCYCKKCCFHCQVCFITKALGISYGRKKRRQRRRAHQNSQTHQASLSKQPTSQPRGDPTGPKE

DNA dC->dU-editing enzyme APOBEC-3A, sequence (P31941 whole entry): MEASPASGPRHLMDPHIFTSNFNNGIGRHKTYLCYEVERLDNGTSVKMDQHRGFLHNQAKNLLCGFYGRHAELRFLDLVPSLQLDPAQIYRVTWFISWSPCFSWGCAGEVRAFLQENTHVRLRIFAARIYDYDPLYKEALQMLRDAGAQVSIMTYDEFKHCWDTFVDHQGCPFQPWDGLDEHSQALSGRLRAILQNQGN
Cytochrome P450 2D6, sequence (P10635 whole entry): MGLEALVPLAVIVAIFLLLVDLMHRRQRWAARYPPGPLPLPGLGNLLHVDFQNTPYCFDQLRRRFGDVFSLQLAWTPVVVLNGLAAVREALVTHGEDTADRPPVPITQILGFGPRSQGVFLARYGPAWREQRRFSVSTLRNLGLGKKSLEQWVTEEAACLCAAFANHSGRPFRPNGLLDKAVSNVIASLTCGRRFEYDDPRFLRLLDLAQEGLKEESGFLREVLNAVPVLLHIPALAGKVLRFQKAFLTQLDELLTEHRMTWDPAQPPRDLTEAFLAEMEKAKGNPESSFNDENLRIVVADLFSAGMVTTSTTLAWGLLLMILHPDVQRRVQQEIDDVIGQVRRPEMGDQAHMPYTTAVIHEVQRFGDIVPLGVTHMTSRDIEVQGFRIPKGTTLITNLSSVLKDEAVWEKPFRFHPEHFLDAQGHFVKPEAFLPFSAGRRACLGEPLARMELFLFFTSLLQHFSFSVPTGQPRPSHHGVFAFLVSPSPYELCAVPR
Cytochrome P450 3A4, sequence (P08684 whole entry): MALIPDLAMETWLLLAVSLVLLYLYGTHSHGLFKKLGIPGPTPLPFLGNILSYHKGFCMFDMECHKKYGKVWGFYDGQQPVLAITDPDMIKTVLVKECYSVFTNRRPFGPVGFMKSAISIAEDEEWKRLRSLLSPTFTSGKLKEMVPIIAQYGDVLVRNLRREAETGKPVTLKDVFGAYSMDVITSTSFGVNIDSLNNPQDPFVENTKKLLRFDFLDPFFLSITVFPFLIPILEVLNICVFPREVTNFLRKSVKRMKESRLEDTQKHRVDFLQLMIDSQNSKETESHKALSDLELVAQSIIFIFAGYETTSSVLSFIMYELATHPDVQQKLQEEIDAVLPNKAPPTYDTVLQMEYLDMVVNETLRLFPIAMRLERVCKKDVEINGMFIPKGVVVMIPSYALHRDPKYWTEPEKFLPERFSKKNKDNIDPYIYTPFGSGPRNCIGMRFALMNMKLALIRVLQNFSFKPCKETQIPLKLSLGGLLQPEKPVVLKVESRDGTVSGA
Luciferin 4-monooxygenase, sequence (P08659 whole entry): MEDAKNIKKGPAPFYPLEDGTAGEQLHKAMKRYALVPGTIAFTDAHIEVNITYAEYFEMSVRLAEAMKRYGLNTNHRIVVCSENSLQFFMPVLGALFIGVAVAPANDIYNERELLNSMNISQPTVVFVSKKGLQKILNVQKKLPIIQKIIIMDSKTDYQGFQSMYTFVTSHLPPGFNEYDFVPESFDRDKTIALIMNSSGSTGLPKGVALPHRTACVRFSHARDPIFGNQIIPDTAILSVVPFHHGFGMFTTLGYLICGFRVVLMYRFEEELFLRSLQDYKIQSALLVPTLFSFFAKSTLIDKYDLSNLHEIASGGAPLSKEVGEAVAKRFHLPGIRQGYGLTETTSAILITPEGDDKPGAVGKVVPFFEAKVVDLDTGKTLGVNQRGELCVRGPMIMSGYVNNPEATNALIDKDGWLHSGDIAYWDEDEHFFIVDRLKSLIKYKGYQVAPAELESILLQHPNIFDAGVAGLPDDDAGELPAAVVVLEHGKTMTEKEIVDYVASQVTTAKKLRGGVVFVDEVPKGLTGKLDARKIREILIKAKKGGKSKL
Polyadenylate-binding protein 1, sequence (P11940 whole entry): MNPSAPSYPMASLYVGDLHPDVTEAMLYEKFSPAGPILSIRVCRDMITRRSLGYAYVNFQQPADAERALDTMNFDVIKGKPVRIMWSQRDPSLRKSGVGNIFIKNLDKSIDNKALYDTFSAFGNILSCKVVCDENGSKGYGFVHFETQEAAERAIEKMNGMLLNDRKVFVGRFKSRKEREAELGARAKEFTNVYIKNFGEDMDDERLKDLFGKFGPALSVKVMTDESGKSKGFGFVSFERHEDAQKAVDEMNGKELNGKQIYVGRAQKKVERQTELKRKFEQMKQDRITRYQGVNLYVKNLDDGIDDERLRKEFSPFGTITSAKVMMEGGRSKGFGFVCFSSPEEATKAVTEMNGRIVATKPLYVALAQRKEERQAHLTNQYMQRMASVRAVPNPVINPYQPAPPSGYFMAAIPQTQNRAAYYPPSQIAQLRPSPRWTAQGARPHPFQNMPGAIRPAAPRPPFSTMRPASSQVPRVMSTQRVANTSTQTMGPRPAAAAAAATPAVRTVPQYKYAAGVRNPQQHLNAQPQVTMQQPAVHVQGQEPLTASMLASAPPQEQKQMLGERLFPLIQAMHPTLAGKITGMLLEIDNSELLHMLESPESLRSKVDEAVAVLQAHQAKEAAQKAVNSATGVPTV
Cytochrome P450 2C19, sequence (P33261 whole entry): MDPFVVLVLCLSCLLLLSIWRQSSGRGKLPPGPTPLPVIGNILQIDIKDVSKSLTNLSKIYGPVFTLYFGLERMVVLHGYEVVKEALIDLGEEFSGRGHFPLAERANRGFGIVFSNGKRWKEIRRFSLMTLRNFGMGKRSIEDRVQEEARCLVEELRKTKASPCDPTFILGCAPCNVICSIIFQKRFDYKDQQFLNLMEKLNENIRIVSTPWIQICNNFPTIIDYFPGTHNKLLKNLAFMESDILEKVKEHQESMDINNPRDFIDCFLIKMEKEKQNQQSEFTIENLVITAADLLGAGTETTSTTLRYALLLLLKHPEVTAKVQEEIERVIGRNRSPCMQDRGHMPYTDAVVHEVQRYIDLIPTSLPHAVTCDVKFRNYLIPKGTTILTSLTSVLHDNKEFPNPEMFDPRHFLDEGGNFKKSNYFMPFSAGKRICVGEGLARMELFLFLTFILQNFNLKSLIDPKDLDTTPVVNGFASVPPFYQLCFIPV
FAD-linked sulfhydryl oxidase ALR, sequence (P55789 whole entry, the tested form may be a part): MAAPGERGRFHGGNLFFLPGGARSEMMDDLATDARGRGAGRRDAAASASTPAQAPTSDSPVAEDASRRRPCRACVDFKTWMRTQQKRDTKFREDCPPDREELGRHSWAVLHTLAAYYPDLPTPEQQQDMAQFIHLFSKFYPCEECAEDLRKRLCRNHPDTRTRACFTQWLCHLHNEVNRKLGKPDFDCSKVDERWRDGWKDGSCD
Genome polyprotein, sequence (P29990 2492-3391 limits assumed): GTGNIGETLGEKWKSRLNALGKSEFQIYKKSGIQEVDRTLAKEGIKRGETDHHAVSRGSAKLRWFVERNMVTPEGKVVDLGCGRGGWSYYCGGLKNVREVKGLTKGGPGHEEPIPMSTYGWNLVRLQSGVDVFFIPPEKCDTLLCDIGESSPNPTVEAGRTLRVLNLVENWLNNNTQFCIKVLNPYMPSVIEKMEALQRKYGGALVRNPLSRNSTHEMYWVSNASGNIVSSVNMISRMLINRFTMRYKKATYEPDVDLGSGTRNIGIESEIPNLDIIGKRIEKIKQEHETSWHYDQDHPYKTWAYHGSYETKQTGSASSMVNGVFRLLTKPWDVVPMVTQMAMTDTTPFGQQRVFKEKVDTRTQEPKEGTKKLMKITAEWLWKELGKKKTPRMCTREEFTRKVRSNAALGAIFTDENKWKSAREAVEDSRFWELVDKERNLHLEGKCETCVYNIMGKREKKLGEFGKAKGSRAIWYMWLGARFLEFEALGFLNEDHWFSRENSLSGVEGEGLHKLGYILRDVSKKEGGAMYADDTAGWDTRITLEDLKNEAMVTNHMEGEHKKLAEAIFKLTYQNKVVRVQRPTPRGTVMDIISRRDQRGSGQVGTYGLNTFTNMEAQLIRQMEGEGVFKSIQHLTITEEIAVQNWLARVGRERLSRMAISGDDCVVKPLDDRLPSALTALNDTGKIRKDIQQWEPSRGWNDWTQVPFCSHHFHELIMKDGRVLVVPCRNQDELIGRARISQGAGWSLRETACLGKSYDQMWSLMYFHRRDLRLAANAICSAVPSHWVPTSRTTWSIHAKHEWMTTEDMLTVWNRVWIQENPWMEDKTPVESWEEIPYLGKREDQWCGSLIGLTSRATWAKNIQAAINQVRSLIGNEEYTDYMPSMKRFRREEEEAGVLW
Estrogen receptor beta, sequence (Q92731 whole entry): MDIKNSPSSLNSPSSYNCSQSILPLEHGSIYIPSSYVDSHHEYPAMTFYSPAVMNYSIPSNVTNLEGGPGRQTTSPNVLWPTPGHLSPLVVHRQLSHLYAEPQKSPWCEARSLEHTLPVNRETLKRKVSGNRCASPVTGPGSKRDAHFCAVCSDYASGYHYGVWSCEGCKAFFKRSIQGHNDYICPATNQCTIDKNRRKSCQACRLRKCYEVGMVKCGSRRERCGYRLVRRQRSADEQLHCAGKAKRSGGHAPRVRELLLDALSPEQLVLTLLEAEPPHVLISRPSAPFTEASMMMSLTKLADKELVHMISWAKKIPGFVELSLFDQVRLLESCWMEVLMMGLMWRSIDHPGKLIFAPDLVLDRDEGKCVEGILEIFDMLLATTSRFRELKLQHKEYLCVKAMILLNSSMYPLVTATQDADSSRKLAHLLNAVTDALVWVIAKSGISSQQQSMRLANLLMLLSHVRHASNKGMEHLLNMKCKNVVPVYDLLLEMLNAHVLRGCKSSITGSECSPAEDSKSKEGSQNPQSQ

Structure (SMILES): O=C(NCc1ccco1)c1cc2n(n1)C(C(F)(F)F)CC(c1ccc(Cl)c(Cl)c1)N2 (stereo not drawn)
- IC50 [1]: > 100 µM (active)
- EC50 [2]: 7.67 µM (active)
- EC50 [3]: 3.86 µM (active)

Structure (SMILES): C[N+]12CCCCC1[C@@H](CO)CCC2 (stereo partly drawn)
- IC50 [4]: 4.19 µM (active)
- IC50 [5]: 5.51 µM (active)
- IC50 [6]: > 100 µM (inactive)
- IC50 [7]: 2.79 µM (active)

Structure (SMILES): CCC(C)NC(=O)c1cc2cc3ccc(OC)cc3nc2s1 (stereo not drawn)
- CC50 [8]: 44.8 µM (active)
- IC50 (cells): 10.8 µM (active)

Structure (SMILES): CC1=NOC(=O)/C1=C\c1ccc(-c2ccc(Cl)cc2Cl)o1
- AC50 (Cytochrome P450 3A4): 17.8 µM (inconclusive)
- AC50 (Cytochrome P450 2D6): 14.1 µM (inconclusive)
- AC50 (Cytochrome P450 2C19): 7.94 µM (inconclusive)
- IC50 (Hexokinase HKDC1): 20.6 µM (inactive)
- IC50 (Vero [9]): > 25 µM (active)
- IC50 [10]: 1.7 µM (active)
- CC50 (HeLa): > 3.67 µM (not active)
- CC50 (Vero [11]): > 25 µM (active)

Structure (SMILES): CCN1CCC(C(N)=O)CC1
- IC50 (Estrogen receptor beta): > 50 µM (not active)

Structure (SMILES): COC(=O)c1sc(-c2ccc(C(C)(C)C)cc2)cc1NC(=O)c1ccccc1C(=O)O
- IC50 (Genome polyprotein): 35.9 µM (active)
- AC50 [12]: 0.087 µM (active)
- IC50 [13]: 49.9 µM (active)

Structure (SMILES): COc1cc(OC)c2cc[nH]c2c1
- IC50 [1]: > 100 µM (active)
- EC50 [14]: > 112 µM (not active)
- EC50 [15]: > 112 µM (not active)
- IC50 [16]: 108 µM (active)

Structure (SMILES): CN(C)c1ccc(/C=N/NC(=O)c2cc(-c3ccc4c(c3)OCO4)[nH]n2)cc1
- CC50 [17]: 30.2 µM (active)

Structure (SMILES): O=C(N/N=C/c1ccc[nH]1)c1cccnc1
- IC50 [18]: > 100 µM (active)
- IC50 (Protein Tat): > 100 µM (active)
